# In ChEMBL document CHEMBL1667817, “Design, synthesis and biological evaluation of new arylpiperazine derivatives bearing a flavone moiety as α1-adrenoceptor antagonists” (Bioorg Med Chem Lett, 2011):
# Biological target: T1, Adrenergic receptor alpha-1 (Rattus norvegicus, UniProt P15823+P23944+P43140)
# T1 sequence (P15823 whole entry): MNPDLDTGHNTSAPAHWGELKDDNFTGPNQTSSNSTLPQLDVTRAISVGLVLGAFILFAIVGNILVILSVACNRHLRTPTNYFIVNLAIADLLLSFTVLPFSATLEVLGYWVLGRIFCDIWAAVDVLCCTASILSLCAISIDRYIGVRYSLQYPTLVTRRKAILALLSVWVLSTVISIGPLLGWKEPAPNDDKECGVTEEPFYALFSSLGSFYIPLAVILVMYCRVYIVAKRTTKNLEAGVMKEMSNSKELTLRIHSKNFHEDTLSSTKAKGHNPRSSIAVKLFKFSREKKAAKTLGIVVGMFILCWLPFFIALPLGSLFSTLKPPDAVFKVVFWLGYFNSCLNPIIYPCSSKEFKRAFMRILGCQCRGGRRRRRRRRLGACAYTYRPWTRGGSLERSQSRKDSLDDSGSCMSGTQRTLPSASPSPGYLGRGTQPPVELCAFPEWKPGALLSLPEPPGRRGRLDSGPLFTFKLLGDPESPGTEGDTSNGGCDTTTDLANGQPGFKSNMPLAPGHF
# T1 sequence (P23944 whole entry): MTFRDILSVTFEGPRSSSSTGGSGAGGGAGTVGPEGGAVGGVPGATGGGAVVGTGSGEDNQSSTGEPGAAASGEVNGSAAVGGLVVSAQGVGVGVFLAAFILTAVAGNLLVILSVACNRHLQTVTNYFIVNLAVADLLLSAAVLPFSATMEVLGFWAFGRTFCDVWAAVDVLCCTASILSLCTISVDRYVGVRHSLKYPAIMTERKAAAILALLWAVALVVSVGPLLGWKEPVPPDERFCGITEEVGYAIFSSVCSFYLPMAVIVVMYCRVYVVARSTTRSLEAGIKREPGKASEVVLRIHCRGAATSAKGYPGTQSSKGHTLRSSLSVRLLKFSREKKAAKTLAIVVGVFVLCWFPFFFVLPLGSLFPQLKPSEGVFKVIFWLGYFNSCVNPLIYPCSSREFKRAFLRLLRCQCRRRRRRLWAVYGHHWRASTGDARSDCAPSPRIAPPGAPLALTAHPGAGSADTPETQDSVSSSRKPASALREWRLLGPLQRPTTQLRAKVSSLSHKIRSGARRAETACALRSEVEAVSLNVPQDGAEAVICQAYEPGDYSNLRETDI
# T1 sequence (P43140 whole entry): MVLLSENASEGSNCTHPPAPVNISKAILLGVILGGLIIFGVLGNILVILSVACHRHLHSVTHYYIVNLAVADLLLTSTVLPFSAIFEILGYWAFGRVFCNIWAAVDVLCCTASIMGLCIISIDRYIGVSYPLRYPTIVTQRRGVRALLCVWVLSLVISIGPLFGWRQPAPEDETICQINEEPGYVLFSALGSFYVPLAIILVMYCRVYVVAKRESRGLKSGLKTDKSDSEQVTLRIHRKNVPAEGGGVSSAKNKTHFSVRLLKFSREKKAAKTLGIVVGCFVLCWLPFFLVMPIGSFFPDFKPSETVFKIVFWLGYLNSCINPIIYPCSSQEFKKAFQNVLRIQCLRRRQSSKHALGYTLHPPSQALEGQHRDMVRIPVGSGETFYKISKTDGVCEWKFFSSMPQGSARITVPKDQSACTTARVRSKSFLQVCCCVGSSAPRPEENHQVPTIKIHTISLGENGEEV
# Assay: Antagonist activity at alpha1-adrenoceptor in rat anococcygeal muscle assessed as inhibition of phenylephrine-induced contraction
# Type: functional
row,pA2,SMILES
1,6.925,O=c1cc(-c2ccc(Cl)cc2)oc2cc(OCCBr)ccc12
2,7.772,Cc1ccccc1N1CCN(CCCOc2ccc3c(=O)cc(-c4ccc(Cl)cc4)oc3c2)CC1
3,8.579,O=c1cc(-c2ccc(Cl)cc2)oc2cc(OCCN3CCN(c4ccccc4)CC3)ccc12
4,8.177,O=c1cc(-c2ccccc2)oc2cc(OCCCN3CCN(c4ccccc4)CC3)ccc12
5,8.333,O=c1cc(-c2ccccc2)oc2cc(OCCCCN3CCN(c4ccccc4)CC3)ccc12
6,6.368,O=c1cc(-c2ccc(Cl)cc2)oc2cc(OCCCCBr)ccc12
7,6.609,O=c1cc(-c2ccccc2)oc2cc(O)ccc12 [7-HYDROXYFLAVONE]
8,7.383,Cc1ccccc1N1CCN(CCOc2ccc3c(=O)cc(-c4ccccc4)oc3c2)CC1
9,8.072,O=c1cc(-c2ccc(Cl)cc2)oc2cc(OCCCN3CCN(c4ccccc4)CC3)ccc12
10,6.168,O=c1cc(-c2ccc(Cl)cc2)oc2cc(OCCCBr)ccc12
11,8.93,Cc1ccc(N2CCN(CCOc3ccc4c(=O)cc(-c5ccc(Cl)cc5)oc4c3)CC2)cc1
12,8.498,Cc1ccc(N2CCN(CCCCOc3ccc4c(=O)cc(-c5ccc(Cl)cc5)oc4c3)CC2)cc1
13,6.93,Cc1ccccc1N1CCN(CCCOc2ccc3c(=O)cc(-c4ccccc4)oc3c2)CC1
14,6.538,O=c1cc(-c2ccccc2)oc2cc(OCCCCBr)ccc12
15,7.471,Cc1ccccc1N1CCN(CCCCOc2ccc3c(=O)cc(-c4ccc(Cl)cc4)oc3c2)CC1
16,8.207,Cc1ccccc1N1CCN(CCOc2ccc3c(=O)cc(-c4ccc(Cl)cc4)oc3c2)CC1
17,6.845,O=c1cc(-c2ccc(Cl)cc2)oc2cc(O)ccc12
18,6.409,O=c1cc(-c2ccccc2)oc2cc(OCCCBr)ccc12
19,8.526,O=c1cc(-c2ccccc2)oc2cc(OCCN3CCN(c4ccccc4)CC3)ccc12
20,7.684,Cc1ccc(N2CCN(CCCOc3ccc4c(=O)cc(-c5ccccc5)oc4c3)CC2)cc1
21,6.897,O=c1cc(-c2ccccc2)oc2cc(OCCBr)ccc12
22,7.71,Cc1ccccc1N1CCN(CCCCOc2ccc3c(=O)cc(-c4ccccc4)oc3c2)CC1
23,8.088,Cc1ccc(N2CCN(CCCOc3ccc4c(=O)cc(-c5ccc(Cl)cc5)oc4c3)CC2)cc1
24,7.914,O=c1cc(-c2ccc(Cl)cc2)oc2cc(OCCCCN3CCN(c4ccccc4)CC3)ccc12
25,8.647,Cc1ccc(N2CCN(CCOc3ccc4c(=O)cc(-c5ccccc5)oc4c3)CC2)cc1
26,6.709,Cc1ccc(N2CCN(CCCCOc3ccc4c(=O)cc(-c5ccccc5)oc4c3)CC2)cc1
